In patent US7994209B2, “3-phenoxymethylpyrrolidine compounds” (Theravance, Inc., priority 2009, dated 2011):

These molecules were tested against T1, hSERT (Homo sapiens, UniProt P31645) (assay: hSERT neurotransmitter uptake assay (3H-5-HT), Assay 2). Details: serotonin reuptake inhibition, 3H-5-HT uptake, HEK-293 hSERT cells (values without asterisk); read-out: SERT pIC50 (converted).
Format: cell-based
Design: expressed in transfected cells; host or cells: HEK-293
Method: (§1) Cells were harvested by centrifugation at 1100 rpm for 5 minutes, washed once by resuspension in PBS, then centrifuged. The supernatant was discarded and the cell pellet resuspended, by gentle trituration, in room temperature Krebs-Ringer bicarbonate buffer containing HEPES (10 mM), CaCl2 (2.2 mM), ascorbic acid (200 μM) and pargyline (200 μM), pH 7.4.
(§2) Test compounds were incubated for 30 minutes at 37° C. with the respective cells, prior to addition of radiolabeled neurotransmitter, ^3H-5-HT (20 nM final concentration), ^3H-NE (50 nM final concentration) or ^3H-DA (100 nM final concentration).

T1 sequence (P31645 whole entry): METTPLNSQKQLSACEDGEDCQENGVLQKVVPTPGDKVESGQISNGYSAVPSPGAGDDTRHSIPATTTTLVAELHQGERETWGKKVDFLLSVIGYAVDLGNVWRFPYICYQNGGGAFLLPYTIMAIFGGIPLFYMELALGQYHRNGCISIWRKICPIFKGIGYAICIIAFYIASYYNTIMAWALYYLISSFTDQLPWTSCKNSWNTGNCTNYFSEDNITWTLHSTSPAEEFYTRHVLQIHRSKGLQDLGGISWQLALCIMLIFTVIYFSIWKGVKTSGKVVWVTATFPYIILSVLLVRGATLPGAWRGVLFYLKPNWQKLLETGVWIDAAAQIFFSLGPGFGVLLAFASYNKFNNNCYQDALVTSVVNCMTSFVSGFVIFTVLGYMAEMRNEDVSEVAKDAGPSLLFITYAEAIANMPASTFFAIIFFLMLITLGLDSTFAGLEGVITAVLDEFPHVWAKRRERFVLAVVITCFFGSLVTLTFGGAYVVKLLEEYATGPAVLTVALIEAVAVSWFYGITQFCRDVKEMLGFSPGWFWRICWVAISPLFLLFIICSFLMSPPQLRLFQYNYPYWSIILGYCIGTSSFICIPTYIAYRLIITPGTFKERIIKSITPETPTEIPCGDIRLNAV

| IC50 [µM] | Structure (SMILES) |
| --- | --- |
| ≤ 0.01 | CC[C@H](Oc1ccc(Cl)cc1OC)[C@H]1CCNC1 [Example 2-68, (S)-3-[(S)-1-(4-Chloro-2-methoxyphenoxy)propyl]pyrrolidine] |
| ≤ 0.1 | CC[C@H](Oc1ccc(F)cc1OC)[C@H]1CCNC1 [Example 2-69, (S)-3-[(S)-1-(4-Fluoro-2-methoxyphenoxy)propyl]pyrrolidine] |
| ≤ 0.1 | CC[C@H](Oc1cc(F)c(Cl)cc1OC)[C@H]1CCNC1 [Example 2-70, (S)-3-[(S)-1-(4-Chloro-5-fluoro-2-methoxyphenoxy)propyl]pyrrolidine] |
| ≤ 0.1 | CC[C@H](Oc1cccc(Cl)c1C(F)(F)F)[C@H]1CCNC1 [Example 2-71, (S)-3-[(S)-1-(3-Chloro-2-trifluoromethylphenoxy)propyl]pyrrolidine] |
| ≤ 0.1 | CC[C@@H](Oc1cccc(Cl)c1C(F)(F)F)[C@@H]1CCNC1 [Example 2-72, (R)-3-[(R)-1-(3-Chloro-2-trifluoromethylphenoxy)propyl]pyrrolidine] |
| ≤ 0.1 | CC[C@H](Oc1ccc(Cl)cc1C(F)(F)F)[C@H]1CCNC1 [Example 2-75, (S)-3-[(S)-1-(4-Chloro-2-trifluoromethylphenoxy)propyl]pyrrolidine] |
| ≤ 0.01 | CCC[C@H](Oc1cccc(Cl)c1Cl)[C@H]1CCNC1 [Example 3, (S)-3-[(S)-1-(2,3-Dichlorophenoxy)butyl]pyrrolidine] |
| ≤ 0.01 | CCC[C@H](Oc1ccc(Cl)cc1)[C@H]1CCNC1 [Example 4-1, (S)-3-[(S)-1-(4-Chlorophenoxy)butyl]pyrrolidine] |
| ≤ 0.01 | CCC[C@@H](Oc1ccc(Cl)cc1)[C@H]1CCNC1 [Example 4-2, (S)-3-[(R)-1-(4-Chlorophenoxy)butyl]pyrrolidine] |
| ≤ 0.1 | CCC[C@H](Oc1ccc(F)cc1)[C@H]1CCNC1 [Example 4-5, (S)-3-[(S)-1-(4-Fluorophenoxy)butyl]pyrrolidine] |
| ≤ 0.01 | CCC[C@H](Oc1cc(Cl)cc(Cl)c1)[C@H]1CCNC1 [Example 4-6, (S)-3-[(S)-1-(3,5-Dichlorophenoxy)butyl]pyrrolidine] |
| ≤ 0.01 | CCC[C@@H](Oc1cc(Cl)cc(Cl)c1)[C@H]1CCNC1 [Example 4-7, (S)-3-[(R)-1-(3,5-Dichlorophenoxy)butyl]pyrrolidine] |
| ≤ 0.01 | CCC[C@H](Oc1ccc(Cl)c(Cl)c1)[C@H]1CCNC1 [Example 4-12, (S)-3-[(S)-1-(3,4-Dichlorophenoxy)butyl]pyrrolidine] |
| ≤ 0.01 | CCC[C@@H](Oc1ccc(Cl)c(Cl)c1)[C@H]1CCNC1 [Example 4-13, (S)-3-[(R)-1-(3,4-Dichlorophenoxy)butyl]pyrrolidine] |

Each molecule was assayed against T2, hNET (Homo sapiens, UniProt P23975) (assay: hNET neurotransmitter uptake assay (3H-NE), Assay 2). Details: norepinephrine reuptake inhibition, 3H-NE uptake, HEK-293 hNET cells (values without asterisk); read-out: NET pIC50 (converted).
Format: cell-based
Design: expressed in transfected cells; host or cells: HEK-293
Method: as §1, §2

T2 sequence (P23975 whole entry): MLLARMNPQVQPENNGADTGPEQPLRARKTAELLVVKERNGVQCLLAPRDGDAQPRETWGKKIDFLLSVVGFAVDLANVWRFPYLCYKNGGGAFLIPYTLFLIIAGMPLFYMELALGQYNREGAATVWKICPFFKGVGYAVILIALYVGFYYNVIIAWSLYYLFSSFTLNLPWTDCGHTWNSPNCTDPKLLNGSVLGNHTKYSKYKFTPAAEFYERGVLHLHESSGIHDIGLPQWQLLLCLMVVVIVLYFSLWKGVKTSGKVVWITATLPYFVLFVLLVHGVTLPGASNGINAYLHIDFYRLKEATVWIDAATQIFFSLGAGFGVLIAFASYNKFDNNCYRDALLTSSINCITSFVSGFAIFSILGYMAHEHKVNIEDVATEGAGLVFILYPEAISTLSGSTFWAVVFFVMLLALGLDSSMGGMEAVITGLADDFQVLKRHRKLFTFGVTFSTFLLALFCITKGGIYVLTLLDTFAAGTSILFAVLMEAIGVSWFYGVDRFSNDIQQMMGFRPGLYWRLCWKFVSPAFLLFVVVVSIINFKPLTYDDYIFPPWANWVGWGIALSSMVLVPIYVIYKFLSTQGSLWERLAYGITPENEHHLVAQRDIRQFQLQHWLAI

| IC50 [µM] | Structure (SMILES) |
| --- | --- |
| ≤ 0.01 | CC[C@H](Oc1ccc(Cl)cc1OC)[C@H]1CCNC1 [Example 2-68, (S)-3-[(S)-1-(4-Chloro-2-methoxyphenoxy)propyl]pyrrolidine] |
| ≤ 0.1 | CC[C@H](Oc1ccc(F)cc1OC)[C@H]1CCNC1 [Example 2-69, (S)-3-[(S)-1-(4-Fluoro-2-methoxyphenoxy)propyl]pyrrolidine] |
| ≤ 0.01 | CC[C@H](Oc1cc(F)c(Cl)cc1OC)[C@H]1CCNC1 [Example 2-70, (S)-3-[(S)-1-(4-Chloro-5-fluoro-2-methoxyphenoxy)propyl]pyrrolidine] |
| ≤ 0.01 | CC[C@H](Oc1cccc(Cl)c1C(F)(F)F)[C@H]1CCNC1 [Example 2-71, (S)-3-[(S)-1-(3-Chloro-2-trifluoromethylphenoxy)propyl]pyrrolidine] |
| ≤ 0.1 | CC[C@@H](Oc1cccc(Cl)c1C(F)(F)F)[C@@H]1CCNC1 [Example 2-72, (R)-3-[(R)-1-(3-Chloro-2-trifluoromethylphenoxy)propyl]pyrrolidine] |
| ≤ 0.01 | CC[C@H](Oc1ccc(Cl)cc1C(F)(F)F)[C@H]1CCNC1 [Example 2-75, (S)-3-[(S)-1-(4-Chloro-2-trifluoromethylphenoxy)propyl]pyrrolidine] |
| ≤ 0.01 | CCC[C@H](Oc1cccc(Cl)c1Cl)[C@H]1CCNC1 [Example 3, (S)-3-[(S)-1-(2,3-Dichlorophenoxy)butyl]pyrrolidine] |
| ≤ 0.01 | CCC[C@H](Oc1ccc(Cl)cc1)[C@H]1CCNC1 [Example 4-1, (S)-3-[(S)-1-(4-Chlorophenoxy)butyl]pyrrolidine] |
| ≤ 0.1 | CCC[C@@H](Oc1ccc(Cl)cc1)[C@H]1CCNC1 [Example 4-2, (S)-3-[(R)-1-(4-Chlorophenoxy)butyl]pyrrolidine] |
| ≤ 0.01 | CCC[C@H](Oc1ccc(F)cc1)[C@H]1CCNC1 [Example 4-5, (S)-3-[(S)-1-(4-Fluorophenoxy)butyl]pyrrolidine] |
| ≤ 0.01 | CCC[C@H](Oc1cc(Cl)cc(Cl)c1)[C@H]1CCNC1 [Example 4-6, (S)-3-[(S)-1-(3,5-Dichlorophenoxy)butyl]pyrrolidine] |
| ≤ 0.01 | CCC[C@@H](Oc1cc(Cl)cc(Cl)c1)[C@H]1CCNC1 [Example 4-7, (S)-3-[(R)-1-(3,5-Dichlorophenoxy)butyl]pyrrolidine] |
| ≤ 0.01 | CCC[C@H](Oc1ccc(Cl)c(Cl)c1)[C@H]1CCNC1 [Example 4-12, (S)-3-[(S)-1-(3,4-Dichlorophenoxy)butyl]pyrrolidine] |
| ≤ 0.01 | CCC[C@@H](Oc1ccc(Cl)c(Cl)c1)[C@H]1CCNC1 [Example 4-13, (S)-3-[(R)-1-(3,4-Dichlorophenoxy)butyl]pyrrolidine] |

The molecules below were run against T2, hNET (assay: hNET membrane radioligand binding assay (3H-nisoxetine), Assay 1). Details: not given.

| Ki [µM] | Structure (SMILES) |
| --- | --- |
| ≤ 0.01 | CC[C@H](Oc1ccc(Cl)cc1OC)[C@H]1CCNC1 [Example 2-68, (S)-3-[(S)-1-(4-Chloro-2-methoxyphenoxy)propyl]pyrrolidine] |
| ≤ 0.01 | CC[C@H](Oc1ccc(F)cc1OC)[C@H]1CCNC1 [Example 2-69, (S)-3-[(S)-1-(4-Fluoro-2-methoxyphenoxy)propyl]pyrrolidine] |
| ≤ 0.01 | CC[C@H](Oc1cc(F)c(Cl)cc1OC)[C@H]1CCNC1 [Example 2-70, (S)-3-[(S)-1-(4-Chloro-5-fluoro-2-methoxyphenoxy)propyl]pyrrolidine] |
| ≤ 0.01 | CC[C@H](Oc1cccc(Cl)c1C(F)(F)F)[C@H]1CCNC1 [Example 2-71, (S)-3-[(S)-1-(3-Chloro-2-trifluoromethylphenoxy)propyl]pyrrolidine] |
| ≤ 0.01 | CC[C@@H](Oc1cccc(Cl)c1C(F)(F)F)[C@@H]1CCNC1 [Example 2-72, (R)-3-[(R)-1-(3-Chloro-2-trifluoromethylphenoxy)propyl]pyrrolidine] |
| ≤ 0.01 | CC[C@H](Oc1ccc(Cl)cc1C(F)(F)F)[C@H]1CCNC1 [Example 2-75, (S)-3-[(S)-1-(4-Chloro-2-trifluoromethylphenoxy)propyl]pyrrolidine] |
| ≤ 0.01 | CCC[C@H](Oc1cccc(Cl)c1Cl)[C@H]1CCNC1 [Example 3, (S)-3-[(S)-1-(2,3-Dichlorophenoxy)butyl]pyrrolidine] |
| ≤ 0.01 | CCC[C@H](Oc1ccc(Cl)cc1)[C@H]1CCNC1 [Example 4-1, (S)-3-[(S)-1-(4-Chlorophenoxy)butyl]pyrrolidine] |
| ≤ 0.01 | CCC[C@@H](Oc1ccc(Cl)cc1)[C@H]1CCNC1 [Example 4-2, (S)-3-[(R)-1-(4-Chlorophenoxy)butyl]pyrrolidine] |
| ≤ 0.01 | CCC[C@H](Oc1ccc(F)cc1)[C@H]1CCNC1 [Example 4-5, (S)-3-[(S)-1-(4-Fluorophenoxy)butyl]pyrrolidine] |
| ≤ 0.01 | CCC[C@H](Oc1cc(Cl)cc(Cl)c1)[C@H]1CCNC1 [Example 4-6, (S)-3-[(S)-1-(3,5-Dichlorophenoxy)butyl]pyrrolidine] |
| ≤ 0.01 | CCC[C@@H](Oc1cc(Cl)cc(Cl)c1)[C@H]1CCNC1 [Example 4-7, (S)-3-[(R)-1-(3,5-Dichlorophenoxy)butyl]pyrrolidine] |
| ≤ 0.01 | CCC[C@H](Oc1ccc(Cl)c(Cl)c1)[C@H]1CCNC1 [Example 4-12, (S)-3-[(S)-1-(3,4-Dichlorophenoxy)butyl]pyrrolidine] |
| ≤ 0.01 | CCC[C@@H](Oc1ccc(Cl)c(Cl)c1)[C@H]1CCNC1 [Example 4-13, (S)-3-[(R)-1-(3,4-Dichlorophenoxy)butyl]pyrrolidine] |

The molecules below were run against T1, hSERT (assay: hSERT membrane radioligand binding assay (3H-citalopram), Assay 1). Details: SERT pKi, hSERT HEK-293 membranes, 1.0 nM 3H-citalopram; values given as lower bounds.

| Ki [µM] | Structure (SMILES) |
| --- | --- |
| ≤ 0.01 | CC[C@H](Oc1ccc(Cl)cc1OC)[C@H]1CCNC1 [Example 2-68, (S)-3-[(S)-1-(4-Chloro-2-methoxyphenoxy)propyl]pyrrolidine] |
| ≤ 0.1 | CC[C@H](Oc1ccc(F)cc1OC)[C@H]1CCNC1 [Example 2-69, (S)-3-[(S)-1-(4-Fluoro-2-methoxyphenoxy)propyl]pyrrolidine] |
| ≤ 0.01 | CC[C@H](Oc1cc(F)c(Cl)cc1OC)[C@H]1CCNC1 [Example 2-70, (S)-3-[(S)-1-(4-Chloro-5-fluoro-2-methoxyphenoxy)propyl]pyrrolidine] |
| ≤ 0.01 | CC[C@H](Oc1cccc(Cl)c1C(F)(F)F)[C@H]1CCNC1 [Example 2-71, (S)-3-[(S)-1-(3-Chloro-2-trifluoromethylphenoxy)propyl]pyrrolidine] |
| ≤ 0.01 | CC[C@@H](Oc1cccc(Cl)c1C(F)(F)F)[C@@H]1CCNC1 [Example 2-72, (R)-3-[(R)-1-(3-Chloro-2-trifluoromethylphenoxy)propyl]pyrrolidine] |
| ≤ 0.01 | CC[C@H](Oc1ccc(Cl)cc1C(F)(F)F)[C@H]1CCNC1 [Example 2-75, (S)-3-[(S)-1-(4-Chloro-2-trifluoromethylphenoxy)propyl]pyrrolidine] |
| ≤ 0.01 | CCC[C@H](Oc1cccc(Cl)c1Cl)[C@H]1CCNC1 [Example 3, (S)-3-[(S)-1-(2,3-Dichlorophenoxy)butyl]pyrrolidine] |
| ≤ 0.01 | CCC[C@H](Oc1ccc(Cl)cc1)[C@H]1CCNC1 [Example 4-1, (S)-3-[(S)-1-(4-Chlorophenoxy)butyl]pyrrolidine] |
| ≤ 0.01 | CCC[C@@H](Oc1ccc(Cl)cc1)[C@H]1CCNC1 [Example 4-2, (S)-3-[(R)-1-(4-Chlorophenoxy)butyl]pyrrolidine] |
| ≤ 0.01 | CCC[C@H](Oc1ccc(F)cc1)[C@H]1CCNC1 [Example 4-5, (S)-3-[(S)-1-(4-Fluorophenoxy)butyl]pyrrolidine] |
| ≤ 0.01 | CCC[C@H](Oc1cc(Cl)cc(Cl)c1)[C@H]1CCNC1 [Example 4-6, (S)-3-[(S)-1-(3,5-Dichlorophenoxy)butyl]pyrrolidine] |
| ≤ 0.01 | CCC[C@@H](Oc1cc(Cl)cc(Cl)c1)[C@H]1CCNC1 [Example 4-7, (S)-3-[(R)-1-(3,5-Dichlorophenoxy)butyl]pyrrolidine] |
| ≤ 0.01 | CCC[C@H](Oc1ccc(Cl)c(Cl)c1)[C@H]1CCNC1 [Example 4-12, (S)-3-[(S)-1-(3,4-Dichlorophenoxy)butyl]pyrrolidine] |
| ≤ 0.01 | CCC[C@@H](Oc1ccc(Cl)c(Cl)c1)[C@H]1CCNC1 [Example 4-13, (S)-3-[(R)-1-(3,4-Dichlorophenoxy)butyl]pyrrolidine] |
